Laboratory results reported in patent US20150246058A1, “COMPOSITION FOR PREVENTING HAIR LOSS AND ACCELERATING HAIR GROWTH” (RNS CO., LTD., priority 2012, published 2015).

Assays:
[1] = tested on: 5α-reductase; test: 5α-reductase inhibitory efficacy: DHT produced in testosterone-stimulated dermal papilla cells (DHT ELISA); type: cell-based; conditions: 50 nM testosterone, 24 hours, produced DHT relative to control
Method: After seeding 1 ml of dermal papilla cells (DPCs) by 5×10^5/ml into each well of a 24-well plate, then incubating the same for 24 hours, each of the reaction products prepared according to procedures described in Examples 1 to 72 was added in amounts of 50 μg/ml, 10 μg/ml and 0 μg/ml, respectively, to individual wells. After 1 hour, the wells were subjected to stimulation using 50 nM testosterone (DMSO dissolved). The supernatant was discarded 24 hours after culturing, to thus obtain DPc pellets. A content of dihydrotestosterone (DHT) (DB52021, Hamburg, Germany) was determined by means of enzyme-linked immune-sorbent assay. DPCs cell pellets were seeded in an amount of 100 μL into each of Dihydrotestosterone (DHT) ELISA microtiter strips coated with rabbit anti-DHT antibody, 25 μL of DHT antiserum was seeded in every well, and subjected to a reaction at 2 to 8° C. for 15 to 20 hours, followed by washing the same three times. Thereafter, 100 μL of DHT-HRP enzyme conjugate was seeded in every well and reacted on a shaker at room temperature for 30 minutes, followed by washing the same three times. Furthermore, 100 μL of substrate was seeded in every well and reacted on a shaker at room temperature for 20 to 30 minutes. Then, the product was treated using 100 μL stop solution, and subjected to measurement of absorbance at 450 nm to express an amount of produced DHT by the absorbance (three times repeated). An amount of produced DHT relative to a control was calculated in terms of an inhibitory rate (%), and results thereof are shown in Table 3 below.

[2] = tested on: mice (C57BL/6, female); test: Assessment of anagen phase induction and promotion in shaved mice; type: in vivo
Method: Experimentation for effects of inducing and promoting an anagen phase (that is, hair growth period) was performed with 7 weeks-old mice (C57BL/6, female) widely used in assessment of activity for anagen phase induction. First, using an electric shaver, hair on the dorsal part of a mouse was removed. Each mouse was weighed and all mice were divided into groups, each group having five (5) mice, in order to uniformly disperse body weights of the mice. Hair cut regions were coated with an excipient, control and test medicine, respectively. In this regard, the excipient was 95% ethanol, the control was 2% minoxidil, and the test medicine used herein was the compound in Example 8 diluted with 95% ethanol to have a final concentration of 0.5%. Using a brush, each of the above test samples was sufficiently applied to the dorsal part of each mouse once per day.

[3] = 20 days after experimentation, topical once per day on shaved dorsal part, five mice per group, Minoxidil 2%, Example 8 0.5% in 95% ethanol

CCCCCCCCOC1CCC2(C)C(=CCC3C2CCC2(C)C(C(C)C=CC(C)C(C)C)CCC32)C1 (stereo not drawn) [Compound in Example 71, O-octyl-brassicasterol]
5α-reductase inhibitory rate (%) ([1]; sample concentration 10 μg/ml): 29%
5α-reductase inhibitory rate (%) ([1]; sample concentration 50 μg/ml): 38%

C/C=C(\CC[C@@H](C)[C@H]1CC[C@H]2[C@@H]3CC=C4C[C@@H](OCCCCCCCC)CC[C@]4(C)[C@H]3CC[C@]12C)C(C)C [Compound in Example 72, O-octyl-fucosterol]
5α-reductase inhibitory rate (%) ([1]; sample concentration 10 μg/ml): 19%
5α-reductase inhibitory rate (%) ([1]; sample concentration 50 μg/ml): 35%

Nc1cc(N2CCCCC2)nc(N)[n+]1[O-] [Minoxidil, minoxidil, reference compound]
Number of mouse graded + (improved) [2, 3]: 1
Number of mouse graded ++ (remarkably improved) [2, 3]: 2
Number of mouse graded ± (slightly improved) [2, 3]: 1
Number of mouse graded − (not changed) [2, 3]: 1

O-dodecyl-β-amyrin [Compound in Example 53]
5α-reductase inhibitory rate (%) ([1]; sample concentration 10 μg/ml): 31%
5α-reductase inhibitory rate (%) ([1]; sample concentration 50 μg/ml): 41%

O-octadecyl-oleanolic acid [Compound in Example 62]
5α-reductase inhibitory rate (%) ([1]; sample concentration 10 μg/ml): 29%
5α-reductase inhibitory rate (%) ([1]; sample concentration 50 μg/ml): 51%

O-octadecyl-α-amyrin [Compound in Example 56]
5α-reductase inhibitory rate (%) ([1]; sample concentration 10 μg/ml): 38%
5α-reductase inhibitory rate (%) ([1]; sample concentration 50 μg/ml): 49%

O-octadecyl-β-amyrin [Compound in Example 54]
5α-reductase inhibitory rate (%) ([1]; sample concentration 10 μg/ml): 35%
5α-reductase inhibitory rate (%) ([1]; sample concentration 50 μg/ml): 48%

O-octyl-β-boswellic acid [Compound in Example 64]
5α-reductase inhibitory rate (%) ([1]; sample concentration 10 μg/ml): 35%
5α-reductase inhibitory rate (%) ([1]; sample concentration 50 μg/ml): 51%

betulinic acid stearate [Compound in Example 33]
5α-reductase inhibitory rate (%) ([1]; sample concentration 10 μg/ml): 31%
5α-reductase inhibitory rate (%) ([1]; sample concentration 50 μg/ml): 51%

brassicasterol stearate [Compound in Example 47]
5α-reductase inhibitory rate (%) ([1]; sample concentration 10 μg/ml): 24%
5α-reductase inhibitory rate (%) ([1]; sample concentration 50 μg/ml): 39%

desmosterol stearate [Compound in Example 39]
5α-reductase inhibitory rate (%) ([1]; sample concentration 10 μg/ml): 26%
5α-reductase inhibitory rate (%) ([1]; sample concentration 50 μg/ml): 41%

dihydroandrosterone stearate [Compound in Example 37]
5α-reductase inhibitory rate (%) ([1]; sample concentration 10 μg/ml): 24%
5α-reductase inhibitory rate (%) ([1]; sample concentration 50 μg/ml): 38%

fucosterol stearate [Compound in Example 49]
5α-reductase inhibitory rate (%) ([1]; sample concentration 10 μg/ml): 25%
5α-reductase inhibitory rate (%) ([1]; sample concentration 50 μg/ml): 41%

glycyrrhetinic acid stearate [Compound in Example 35]
5α-reductase inhibitory rate (%) ([1]; sample concentration 10 μg/ml): 24%
5α-reductase inhibitory rate (%) ([1]; sample concentration 50 μg/ml): 39%

oleanolic acid acetate [Compound in Example 23]
5α-reductase inhibitory rate (%) ([1]; sample concentration 10 μg/ml): 11%
5α-reductase inhibitory rate (%) ([1]; sample concentration 50 μg/ml): 23%

oleanolic acid stearate [Compound in Example 25]
5α-reductase inhibitory rate (%) ([1]; sample concentration 10 μg/ml): 35%
5α-reductase inhibitory rate (%) ([1]; sample concentration 50 μg/ml): 41%

ursolic acid acetate [Compound in Example 19]
5α-reductase inhibitory rate (%) ([1]; sample concentration 10 μg/ml): 22%
5α-reductase inhibitory rate (%) ([1]; sample concentration 50 μg/ml): 31%

ursolic acid stearate [Compound in Example 21]
5α-reductase inhibitory rate (%) ([1]; sample concentration 10 μg/ml): 35%
5α-reductase inhibitory rate (%) ([1]; sample concentration 50 μg/ml): 51%

α-amyrin stearate [Compound in Example 13]
5α-reductase inhibitory rate (%) ([1]; sample concentration 10 μg/ml): 45%
5α-reductase inhibitory rate (%) ([1]; sample concentration 50 μg/ml): 57%

α-boswellic acid stearate [Compound in Example 28]
5α-reductase inhibitory rate (%) ([1]; sample concentration 10 μg/ml): 37%
5α-reductase inhibitory rate (%) ([1]; sample concentration 50 μg/ml): 51%

β-amyrin behenate [Compound in Example 9]
5α-reductase inhibitory rate (%) ([1]; sample concentration 10 μg/ml): 38%
5α-reductase inhibitory rate (%) ([1]; sample concentration 50 μg/ml): 59%

β-amyrin laurate [Compound in Example 6]
5α-reductase inhibitory rate (%) ([1]; sample concentration 10 μg/ml): 43%
5α-reductase inhibitory rate (%) ([1]; sample concentration 50 μg/ml): 59%

β-amyrin stearate [Compound in Example 8]
5α-reductase inhibitory rate (%) ([1]; sample concentration 10 μg/ml): 48%
5α-reductase inhibitory rate (%) ([1]; sample concentration 50 μg/ml): 63%
hair growth in the hair cut region (in words) ([2]; 0.5% in 95% ethanol, topical once per day, Table 4 and FIG. 1): rapid hair growth
Number of mouse graded + (improved) [2, 3]: 1
Number of mouse graded ++ (remarkably improved) [2, 3]: 3
Number of mouse graded ± (slightly improved) [2, 3]: 1

β-boswellic acid stearate [Compound in Example 31]
5α-reductase inhibitory rate (%) ([1]; sample concentration 10 μg/ml): 31%
5α-reductase inhibitory rate (%) ([1]; sample concentration 50 μg/ml): 47%
